Experimental data taken from US7138231B2 (priority 2000, dated 2006).
“Also recorded” adds a separate entry of the source. Like-named read-outs stand apart in the source and are kept apart here.

Legend:
[1] = test system: HIV-1 patient-derived protease and reverse transcriptase segments (N88S in PR) in resistance test vectors; test: Phenotypic drug susceptibility test with resistance test vectors from patient samples; assay type: cell-based; settings: for Fold Change vs. reference: N88S
[2] = test system: HIV-1 patient viruses with protease L90M; test: Phenotypic susceptibility profiles of 58 patient virus samples with L90M, no other primary mutations; assay type: cell-based; settings: {}
[3] = test system: HIV-1 patient viruses with protease L90M; test: Phenotypic susceptibility profiles of 333 patient virus samples with L90M (not 30 or 50); assay type: cell-based
[4] = test system: HIV-1; settings: cited from earlier work
[5] = test system: HIV-2; settings: cited from earlier work
[6] = test system: HIV-1 variants with protease substitutions; settings: cited from earlier work
[7] = target: HIV-1 protease mutants (I50V, M46I/I47V/I50V, L10F, M46I, I47V) (Human immunodeficiency virus type 1 group M subtype B, UniProt P04585, I535V/I538V/M534I); settings: triple mutant M46I/I47V/I50V; cited from earlier work
[8] = target: HIV-1 protease mutants (I50V, M46I/I47V/I50V, L10F, M46I, I47V) (Human immunodeficiency virus type 1 group M subtype B, UniProt P04585, I538V); settings: I50V single-mutant protease; cited from earlier work
[9] = test system: HIV-1 protease mutants (I50V, M46I/I47V/I50V, L10F, M46I, I47V); settings: single mutants L10F, M46I, and I47V; cited from earlier work
[10] = test system: HIV-1 protease site-directed mutants (N88S, L63P, V77I, M46L) in resistance test vector; test: Phenotypic susceptibility assay of resistance test vectors with site-directed mutations in PR
Excerpt: The resistance test vectors containing a functional luciferase gene cassette were constructed and host cells were transfected with the resistance test vector DNA. […] The resistance test vector viral particles produced by transfecting the resistance test vector DNA into host cells, either in the presence or absence of protease inhibitors, were used to infect target host cells grown either in the absence of NRTI or NNRTI or in the presence of increasing concentrations of the drug. Luciferase activity in infected target host cells in the presence of drug was compared to the luciferase activity in infected target host cells in the absence of drug. […] The IC50 values were determined by plotting percent drug inhibition vs. log10 drug concentration.
Host cells were seeded in 10-cm-diameter dishes and were transfected one day after plating with resistance test vector plasmid DNA and the envelope expression vector. Transfections were performed using a calcium-phosphate co-precipitation procedure. The cell culture media containing the DNA precipitate was replaced with fresh medium, from one to 24 hours, after transfection. Cell culture media containing resistance test vector viral particles was harvested one to four days after transfection and was passed through a 0.45-mm filter before being stored at −80° C. HIV capsid protein (p24) levels in the harvested cell culture media were determined by an EIA method as described by the manufacturer (SIAC; Frederick, Md.). Before infection, target cells (293 and 293/T) were plated in cell culture media. Control infections were performed using cell culture media from mock transfections (no DNA) or transfections containing the resistance test vector plasmid DNA without the envelope expression plasmid. One to three or more days after infection the media was removed and cell lysis buffer (Promega) was added to each well. Cell lysates were assayed for luciferase activity. The inhibitory effect of the drug was determined using the following equation: % luciferase inhibition=[1−(RLUluc[drug]RLUluc)]×100 where RLUluc [drug] is the relative light unit of luciferase activity in infected cells in the presence of drug and RLUluc is the Relative Light Unit of luciferase activity in infected cells in the absence of drug. IC50 values were obtained from the sigmoidal curves that were generated from the data by plotting the percent inhibition of luciferase activity vs. the log10 drug concentration.
Mutations are introduced into the resistance test vector through any of the widely known methods for site-directed mutagenesis. […] A resistance test vector containing the specific mutation or group of mutations are then tested using the phenotypic susceptibility assay described above and the susceptibility profile is compared to that of a genetically defined wild-type (drug susceptible) resistance test vector which lacks the specific mutations.
Resistance test vectors were constructed containing the N88S mutation alone and in combination with other substitutions in PR (L63P, V77I and M46L) known to modulate the HIV susceptibility to PRIs. Mutations were introduced into the resistance test vector using the mega-primer PCR method for site-directed mutagenesis.

## CC(C)CN(C[C@@H](O)[C@H](Cc1ccccc1)NC(=O)O[C@H]1CCOC1)S(=O)(=O)c1ccc(N)cc1 [amprenavir]
[1]; patient sample 360, prior PRI IDV, PR I13V, K20M, M36V, N37A, M46I, I62V, L63P, I93L
  Fold Change vs. reference: 0.15 fold
[1]; patient sample 627, prior PRI IDV, PR I13I/V, E35D, M46L, L63P, I64V, I73V
  Fold Change vs. reference: 0.09 fold
[1]; patient sample 0732, prior PRI NFV, PR K14R, I15V, K20T, E35D, M36I, R41K, I62V, L63Q
  Fold Change vs. reference: 0.08 fold
[1]; patient sample 0910, prior PRI NFV, PR M46I, L63P, V77I, I93I/L
  Fold Change vs. reference: 0.16 fold
[1]; patient sample 1208, prior PRI NFV, PR I62V, L63P, V77I
  Fold Change vs. reference: 0.10 fold
[1]; patient sample 3542, prior PRI IDV, PR I13V, K14R, N37D, M46I, L63P, I93L
  Fold Change vs. reference: 0.16 fold
[1]; patient sample 3654, PR I13V, R41K, M46I, L63P, V77I, I93L
  Fold Change vs. reference: 0.20 fold
[1]; patient sample RTV-360
  change in susceptibility: increase
[1]; patient sample RTV-627
  change in susceptibility: increase
[1]; patient sample RTV-0732
  change in susceptibility: increase; also recorded: increased susceptibility
[1]; patient sample RTV-0910
  change in susceptibility: increase
[1]; patient sample RTV-1208
  change in susceptibility: increase
[1]; patient sample RTV-3542
  change in susceptibility: increase
[1]; patient sample RTV-3654
  change in susceptibility: increase
[2]
  Percent of viruses with indicated primary mutation(s) which are drug sensitive (fold change in IC50 < 2.5): 65.5%
[3]; Amprenavir FC>2.5, L90M, position 10 wild type
  wt % > 2.5: 30.8%
[3]; Amprenavir FC>2.5, L90M, position 15 wild type
  wt % > 2.5: 63.6%
[3]; Amprenavir FC>2.5, L90M, position 33 wild type
  wt % > 2.5: 57.4%
[3]; Amprenavir FC>2.5, L90M, position 36 wild type
  wt % > 2.5: 55.3%
[3]; Amprenavir FC>2.5, L90M, position 46 wild type
  wt % > 2.5: 46.2%
[3]; Amprenavir FC>2.5, L90M, position 53 wild type
  wt % > 2.5: 57.6%
[3]; Amprenavir FC>2.5, L90M, position 54 wild type
  wt % > 2.5: 47.5%
[3]; Amprenavir FC>2.5, L90M, position 58 wild type
  wt % > 2.5: 58.7%
[3]; Amprenavir FC>2.5, L90M, position 62 wild type
  wt % > 2.5: 55.3%
[3]; Amprenavir FC>2.5, L90M, position 74 wild type
  wt % > 2.5: 62.5%
[3]; Amprenavir FC>2.5, L90M, position 82 wild type
  wt % > 2.5: 53.5%
[3]; Amprenavir FC>2.5, L90M, position 84 wild type
  wt % > 2.5: 48.5%
[3]; Amprenavir FC>2.5, L90M, position 89 wild type
  wt % > 2.5: 59.3%
[3]; Amprenavir FC>2.5, L90M, position 92 wild type
  wt % > 2.5: 58.6%
[3]; Amprenavir FC>2.5, L90M, position 95 wild type
  wt % > 2.5: 58.7%
[3]; Amprenavir FC>2.5, listed as 90: all samples with L90M
  mt % > 2.5: 60.4%
[3]; Amprenavir FC>10, L90M, position 10 wild type
  wt % > 10: 2.6%
[3]; Amprenavir FC>10, L90M, position 13 wild type
  wt % > 10: 10.9%
[3]; Amprenavir FC>10, L90M, position 32 wild type
  wt % > 10: 11.7%
[3]; Amprenavir FC>10, L90M, position 33 wild type
  wt % > 10: 8.4%
[3]; Amprenavir FC>10, L90M, position 46 wild type
  wt % > 10: 8.3%
[3]; Amprenavir FC>10, L90M, position 47 wild type
  wt % > 10: 11.9%
[3]; Amprenavir FC>10, L90M, position 53 wild type
  wt % > 10: 11.5%
[3]; Amprenavir FC>10, L90M, position 54 wild type
  wt % > 10: 5.9%
[3]; Amprenavir FC>10, L90M, position 55 wild type
  wt % > 10: 11.6%
[3]; Amprenavir FC>10, L90M, position 66 wild type
  wt % > 10: 11.9%
[3]; Amprenavir FC>10, L90M, position 69 wild type
  wt % > 10: 14.2%
[3]; Amprenavir FC>10, L90M, position 84 wild type
  wt % > 10: 8.7%
[3]; Amprenavir FC>10, listed as 90: all samples with L90M
  % > 10: 12.9%
[3]; L90M
  Percent of viruses with indicated primary mutation(s) with reduced susceptibility (fold change in IC50 > 2.5): 60.4%
  Percent of viruses with indicated primary mutation(s) with reduced susceptibility (fold change in IC50 > 10): 12.9%
[4]; read-out: IC50
  IC50: 80 nM
[4]; read-out: mean IC50
  IC50: 12 nM
[5]
  IC50: 340 nM
[6]; I50V as a single mutation
  decrease in susceptibility: two- to threefold
[6]; in vitro passage, L10F, M46I, I47V, I50V
  resistance of selected variants: 100 fold
[6]; other substitutions as single mutations in HXB2
  change in susceptibility: did not result in reduced susceptibility
[6]; triple mutant clone M46I, I47V, I50V
  fold less susceptible than wild-type virus: 20 fold
[7]
  fold-reduced Kl compared to wild-type enzyme: 270 fold
[8]
  fold reduction in the inhibition constant (Kl) compared to wild-type enzyme: 80 fold
[9]
  affinity: did not display reduced affinity
[10]; L63P-N88S-RTV
  change in susceptibility compared to wild type control RTV: increase in the susceptibility
[10]; L63P-V77I-N88S-RTV
  change in susceptibility compared to wild type control RTV: increase in the susceptibility; also recorded: increased susceptibility
[10]; M46L-L63P-N88S-RTV
  change in susceptibility compared to wild type control RTV: increase in the susceptibility
[10]; M46L-L63P-V77I-N88S-RTV
  change in susceptibility compared to wild type control RTV: increase in the susceptibility
[10]; N88S-RTV
  change in susceptibility compared to wild type control RTV: more susceptible
[10]; site-directed mutation N88S
  Fold Change vs. reference: 0.04 fold
[10]; site-directed mutations L63P
  Fold Change vs. reference: 1.06 fold
[10]; site-directed mutations L63P, N88S
  Fold Change vs. reference: 0.11 fold
[10]; site-directed mutations L63P, V77I
  Fold Change vs. reference: 0.91 fold
[10]; site-directed mutations L63P, V77I, N88S
  Fold Change vs. reference: 0.08 fold
[10]; site-directed mutations M46L, L63P, N88S
  Fold Change vs. reference: 0.12 fold
[10]; site-directed mutations M46L, L63P, V77I, N88S
  Fold Change vs. reference: 0.14 fold
